How the values were obtained:
[1] = system: Puccinia recondita f. Sp. Tritici; assay: Fungicidal activity against Puccinia recondita f. sp. tritici / wheat / leaf disc preventative (brown rust); type: in vivo; conditions: foliar, 200 ppm in the applied formulation, wheat leaf segments, preventative, compared to untreated control leaf disks, read-out: disease control
How it was run: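 Compound application precedes infection: segments of wheat cv. Kanzler, sprayed at 200 ppm, are inoculated with a spore suspension after 1 day. Incubation is at 19° C. with 75% relative humidity and 12 h light/12 h darkness, and control versus untreated leaves is rated 7 to 9 days post-application.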

[2] = system: Puccinia recondita f. Sp. Tritici; assay: Fungicidal activity against Puccinia recondita f. sp. tritici / wheat / leaf disc curative (brown rust); type: in vivo; conditions: foliar, 24 h, 200 ppm in the applied formulation, wheat leaf segments, curative (applied 1 day after inoculation), compared to untreated control leaf disks, read-out: disease control
How it was run: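 Curative test on wheat leaf segments (cv. Kanzler) on agar, inoculated with spore suspension and held dark at 19° C, 75% RH; formulated compound in water applied 1 day after inoculation. Incubated at 19° C, 75% RH, 12 h light/12 h dark; percent disease control versus untreated scored 6 to 8 days after application.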

[3] = system: Glomerella lagenarium (Colletotrichum lagenarium); assay: Fungicidal activity against Glomerella lagenarium (Colletotrichum lagenarium) liquid culture / cucumber / preventative (anthracnose); type: cell-based; conditions: Colletotrichum orbiculare; 20 ppm in the applied formulation; liquid culture (PDB), growth inhibition measured photometrically after 3 to 4 days; compared to untreated control; read-out: disease control
How it was run: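 Photometric read-out of fungal growth after 2–7 days, expressed as percent antifungal activity versus untreated check. Cryo-stored conidia in PDB; compound at 20 ppm; dark, 24 °C, 96% RH.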

N#CC1(C(=O)N(Cc2ccc(-c3noc(C(F)(F)F)n3)cc2)CC2CCCO2)CC1 (stereo not drawn) [Compound 1.443, 1-cyano-N-(tetrahydrofuran-2-ylmethyl)-N-[[4-[5-(trifluoromethyl)-1,2,4-oxadiazol-3-yl]phenyl]methyl]-cyclopropane-carboxamide]
≥ 80%: pest or weed control at 200 ppm [1] | pest or weed control at 200 ppm [2] | inhibition of growth at 20 ppm [3]

CCN(Cc1ccc(-c2noc(C(F)(F)F)n2)cc1)C(=O)N1CCCC1 [Compound 3.93, N-ethyl-N-[[4-[5-(trifluoromethyl)-1,2,4-oxadiazol-3-yl]phenyl]methyl]-pyrrolidine-1-carboxamide]
≥ 80%: pest or weed control at 200 ppm [1] | pest or weed control at 200 ppm [2] | inhibition of growth at 20 ppm [3]

CCC(C)N(Cc1ccc(-c2noc(C(F)(F)F)n2)cc1)C(=O)CC1CC1 (stereo not drawn) [Compound 1.375, 2-cyclopropyl-N-sec-butyl-N-[[4-(5-(trifluoromethyl)-1,2,4-oxadiazol-3-yl]phenyl]methyl]-acetamide]
≥ 80%: pest or weed control at 200 ppm [1] | pest or weed control at 200 ppm [2] | inhibition of growth at 20 ppm [3]

CCN(Cc1ccc(-c2noc(C(F)(F)F)n2)cc1)C(=O)N(C)CCOC [Compound 3.85, 1-ethyl-3-(2-methoxyethyl)-3-methyl-1-[[4-[5-(trifluoromethyl)-1,2,4-oxadiazol-3-yl]phenyl]methyl]urea]
≥ 80%: pest or weed control at 200 ppm [1] | pest or weed control at 200 ppm [2] | inhibition of growth at 20 ppm [3]

CCCN(C)C(=O)N(CC)Cc1ccc(-c2noc(C(F)(F)F)n2)cc1 [Compound 3.94, 1-ethyl-3-methyl-3-propyl-1-[[4-[5-(trifluoromethyl)-1,2,4-oxadiazol-3-yl]phenyl]methyl]urea]
≥ 80%: pest or weed control at 200 ppm [1] | pest or weed control at 200 ppm [2] | inhibition of growth at 20 ppm [3]

COCCOCC(=O)N(OC)C(C)c1ccc(-c2noc(C(F)(F)F)n2)cc1 (stereo not drawn) [Compound 1.266, N-methoxy-2-(2-methoxyethoxy)-N-[1-[4-[5-(trifluoromethyl)-1,2,4-oxadiazol-3-yl]phenyl]ethyl]-acetamide]
≥ 80%: pest or weed control at 200 ppm [1] | pest or weed control at 200 ppm [2] | inhibition of growth at 20 ppm [3]

CC=C(C)C(=O)N(Cc1ccc(-c2noc(C(F)(F)F)n2)cc1)CC1CCCO1 (stereo not drawn) [Compound 1.417, 2-methyl-N-(tetrahydrofuran-2-ylmethyl)-N-[[4-[5-(trifluoromethyl)-1,2,4-oxadiazol-3-yl]phenyl]methyl]but-2-enamide]
≥ 80%: pest or weed control at 200 ppm [1] | pest or weed control at 200 ppm [2] | inhibition of growth at 20 ppm [3]

O=C(C1CCCO1)N(Cc1ccc(-c2noc(C(F)(F)F)n2)cc1)CC1CCCO1 (stereo not drawn) [Compound 1.442, N-(tetrahydrofuran-2-ylmethyl)-N-[[4-[5-(trifluoromethyl)-1,2,4-oxadiazol-3-yl]phenyl]methyl]-tetrahydrofuran-2-carboxamide]
≥ 80%: pest or weed control at 200 ppm [1] | pest or weed control at 200 ppm [2] | inhibition of growth at 20 ppm [3]

CCN(Cc1ccc(-c2noc(C(F)(F)F)n2)cc1)C(=O)N(C)C1COC1 [Compound 3.91, 1-ethyl-3-methyl-3-(oxetan-3-yl)-1-[[4-[5-(trifluoromethyl)-1,2,4-oxadiazol-3-yl]phenyl]methyl]urea]
≥ 80%: pest or weed control at 200 ppm [1] | pest or weed control at 200 ppm [2] | inhibition of growth at 20 ppm [3]

CCN(Cc1ccc(-c2noc(C(F)(F)F)n2)cc1)C(=O)N(C)C1CC1 [Compound 3.90, 1-cyclopropyl-3-ethyl-1-methyl-3-[[4-[5-(trifluoromethyl)-1,2,4-oxadiazol-3-yl]phenyl]methyl]urea]
≥ 80%: pest or weed control at 200 ppm [1] | pest or weed control at 200 ppm [2] | inhibition of growth at 20 ppm [3]

Source: patent publication US11180462B2, “Microbiocidal oxadiazole derivatives” (SYNGENTA PARTICIPATIONS AG, priority 2015, dated 2021)
